A word on the Ki: it is the equilibrium dissociation constant of an inhibitor or competing ligand from its target.

In one assay the target is Cathepsin S (Homo sapiens, UniProt P25774). Nature of the assay: Cathepsin S inhibition assay (fluorogenic peptide substrate). It is filed as biochemical. The note with it: Table II, compounds of Formula I; read-out: Ki Cat. S. A digest of the protocol: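 Ki values come from nonlinear fitting of inhibited hydrolysis rates, taking free and total inhibitor concentrations as equal. Rates measured as rising fluorescence at 380/450 nm after reaction start with 50 μM final acetyl-HPVK-aminocarbamoylcoumarin.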

A further assay deals with T1, Cathepsin K (Homo sapiens, UniProt P43235).
T1 sequence (P43235 115-329): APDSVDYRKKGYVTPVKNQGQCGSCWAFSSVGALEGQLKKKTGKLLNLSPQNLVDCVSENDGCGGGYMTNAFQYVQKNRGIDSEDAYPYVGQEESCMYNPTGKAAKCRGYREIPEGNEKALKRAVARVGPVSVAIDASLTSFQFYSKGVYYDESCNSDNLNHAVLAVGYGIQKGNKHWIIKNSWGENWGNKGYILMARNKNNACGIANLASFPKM
Nature of the assay: Cathepsin K inhibition assay (fluorogenic peptide substrate); selectivity ratio vs cathepsin S. Particulars: ratio of cathepsin K inhibition constant to cathepsin S inhibition constant; Table II. It counts as biochemical. Put shortly: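 Fluorogenic kinetic assay, started with acetyl-Lys-His-Pro-Lys-aminocarbamoylcoumarin at 40 μM final, hydrolysis followed at ex 380/em 450 nm. Apparent inhibition constants from progress curves, converted to competitive inhibition constants. Selectivity expressed as isozyme inhibition constant divided by cathepsin S inhibition constant.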

Cathepsin S, sequence (P25774 115-331, species assumed): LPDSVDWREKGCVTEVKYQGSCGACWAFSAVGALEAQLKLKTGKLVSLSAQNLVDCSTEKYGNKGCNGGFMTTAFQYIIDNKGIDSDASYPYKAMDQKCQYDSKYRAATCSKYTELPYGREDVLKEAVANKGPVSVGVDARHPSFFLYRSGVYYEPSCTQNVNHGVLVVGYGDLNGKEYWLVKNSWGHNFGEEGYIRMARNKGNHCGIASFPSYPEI

`COc1ccc(NCCNC(=O)[C@H](Cc2ccc(F)cc2)NC(=O)c2cccc(C)c2)cc1` [Compound 245, (S)-N-{2-(4-Fluoro-phenyl)-1-[2-(4-methoxy-phenylamino)-ethylcarbamoyl]-ethyl}-3-methyl-benzamide]: the inhibitory constant (Ki) on Cathepsin S is under 100 nM. Moreover, the “Selectivity for Cat. S over Cat. K” value on Cathepsin K is “+++ (+++, >1000)”.

Turning to `O=C(N[C@@H](CC1CCCCC1)C(=O)NCCNc1ccc(OC(F)(F)F)cc1)c1ccc(-c2cccc(C(F)(F)F)c2)o1` [Compound 246, (S)-5-(3-Trifluoromethyl-phenyl)-furan-2-carboxylic acid {2-cyclohexyl-1-[2-(4-trifluoromethoxy-phenylamino)-ethylcarbamoyl]-ethyl}-amide], at Cathepsin S, the Ki was under 100 nM. For the same molecule, the “Selectivity for Cat. S over Cat. K” value on Cathepsin K is “++ (++, >100)”.

For the molecule `COc1ccc(NCCNC(=O)[C@H](Cc2ccc(OCc3ccccc3)cc2)NC(=O)c2cccc(C)c2)cc1` [Compound 247, (S)-N-{2-(4-Benzyloxy-phenyl)-1-[2-(4-methoxy-phenylamino)-ethylcarbamoyl]-ethyl}-3-methyl-benzamide], the Ki on Cathepsin S is under 100 nM. Further, the “Selectivity for Cat. S over Cat. K” value on Cathepsin K is listed as “+++ (+++, >1000)”.

Take `COc1ccc(NCCNC(=O)[C@H](Cc2ccc(OCc3c(Cl)cccc3Cl)cc2)NC(=O)c2cccc(C)c2)cc1` [Compound 248, (S)-N-{2-[4-(2,6-Dichloro-benzyloxy)-phenyl]-1-[2-(4-methoxy-phenylamino)-ethylcarbamoyl]-ethyl}-3-methyl-benzamide]: on Cathepsin S, the Ki was under 100 nM. Besides, the “Selectivity for Cat. S over Cat. K” value on Cathepsin K is given as “+++ (+++, >1000)”.

Take `Cc1nc(N)sc1C(=O)N[C@@H](CC1CCCCC1)C(=O)NCCNc1ccc(OC(F)(F)F)cc1` [Compound 250, 2-Amino-4-methyl-thiazole-5-carboxylic acid (S)-{2-cyclohexyl-1-[2-(4-trifluoromethoxy-phenylamino)-ethylcarbamoyl]-ethyl}-amide]: on Cathepsin S, the Ki is under 100 nM. Besides, the “Selectivity for Cat. S over Cat. K” value on Cathepsin K is given as “++ (++, >100)”.

For the molecule `O=C(N[C@@H](CC1CCCCC1)C(=O)NCCNc1ccc(OC(F)(F)F)cc1)c1ccc(-c2cc(C(F)(F)F)ccc2Cl)o1` [Compound 251, (S)-5-(2-Chloro-5-trifluoromethyl-phenyl)-furan-2-carboxylic acid {2-cyclohexyl-1-[2-(4-trifluoromethoxy-phenylamino)-ethylcarbamoyl]-ethyl}-amide], at Cathepsin S, the inhibition constant (Ki) was under 100 nM. Besides, the “Selectivity for Cat. S over Cat. K” value on Cathepsin K is on record as “+++ (+++, >1000)”.

For the molecule `COc1ccc(NCCNC(=O)[C@H](Cc2cccc(C(F)(F)F)c2)NC(=O)c2cccc(C)c2)cc1` [Compound 252, (S)-N-[1-[2-(4-Methoxy-phenylamino)-ethylcarbamoyl]-2-(3-trifluoromethyl-phenyl)-ethyl]-3-methyl-benzamide], on Cathepsin S, the inhibition constant (Ki) was under 100 nM. Also, the “Selectivity for Cat. S over Cat. K” value at Cathepsin K was “+++ (+++, >1000)”.

In the case of `COc1ccc(NCCNC(=O)[C@H](COCc2ccccc2)NC(=O)c2cccc(C)c2)cc1` [Compound 254, (S)-N-{2-Benzyloxy-1-[2-(4-methoxy-phenylamino)-ethylcarbamoyl]-ethyl}-3-methyl-benzamide], the inhibition constant Ki on Cathepsin S was under 1000 nM. Moreover, the “Selectivity for Cat. S over Cat. K” value at Cathepsin K is listed as “++ (++, >100)”.

In the case of `COc1ccc(NCCNC(=O)[C@H](Cc2ccc(C(C)(C)C)cc2)NC(=O)c2cccc(C)c2)cc1` [Compound 255, (S)-N-{2-(4-tert-Butyl-phenyl)-1-[2-(4-methoxy-phenylamino)-ethylcarbamoyl]-ethyl}-3-methyl-benzamide], the Ki on Cathepsin S is under 1000 nM. Also, the “Selectivity for Cat. S over Cat. K” value on Cathepsin K is listed as “++ (++, >100)”.

Regarding `COc1ccc(NCCNC(=O)[C@H](Cc2c[nH]c3ccccc23)NC(=O)c2cccc(C)c2)cc1` [Compound 257, (S)-N-{2-(1H-Indol-3-yl)-1-[2-(4-methoxy-phenylamino)-ethylcarbamoyl]-ethyl}-3-methyl-benzamide], the Ki on Cathepsin S is under 100 nM. The “Selectivity for Cat. S over Cat. K” value on Cathepsin K is reported as “+++ (+++, >1000)”.

Consider `COc1ccc(NCCNC(=O)[C@H](Cc2cccc3ccccc23)NC(=O)c2cccc(C)c2)cc1` [Compound 258, (S)-N-{1-[2-(4-Methoxy-phenylamino)-ethylcarbamoyl]-2-naphthalen-1-yl-ethyl}-3-methyl-benzamide], for which the Ki on Cathepsin S is under 100 nM. In addition, the “Selectivity for Cat. S over Cat. K” value at Cathepsin K was “+++ (+++, >1000)”.

Consider `COc1ccc(NCCNC(=O)[C@@H](NC(=O)c2cccc(C)c2)C(C)OCc2ccccc2)cc1` (stereo partly drawn) [Compound 259, (S)-N-{2-Benzyloxy-1-[2-(4-methoxy-phenylamino)-ethylcarbamoyl]-propyl}-3-methyl-benzamide], for which, at Cathepsin S, the inhibitory constant (Ki) is under 1000 nM. Also, at Cathepsin K, the “Selectivity for Cat. S over Cat. K” value is “++ (++, >100)”.

`O=C(Cc1cccc(F)c1)N[C@@H](CC1CCCCC1)C(=O)NCCNc1ccc(F)cc1` [Compound 260, 3-Cyclohexyl-2-(S)-[2-(3-fluoro-phenyl)-acetylamino]-N-[2-(4-fluoro-phenylamino)-ethyl]-propionamide]: the inhibition constant (Ki) on Cathepsin S was under 100 nM. Further, the “Selectivity for Cat. S over Cat. K” value on Cathepsin K is “++ (++, >100)”.

Regarding `O=C(N[C@@H](CC1CCCCC1)C(=O)NCCNc1ccc(F)cc1)c1ccco1` [Compound 264, Furan-2-carboxylic acid (S)-{2-cyclohexyl-1-[2-(4-fluoro-phenylamino)-ethylcarbamoyl]-ethyl}-amide], the inhibition constant Ki on Cathepsin S was under 100 nM. Further, the “Selectivity for Cat. S over Cat. K” value at Cathepsin K is on record as “++ (++, >100)”.

As to `O=C(Cn1cnnn1)N[C@@H](CC1CCCCC1)C(=O)NCCNc1ccc(F)cc1` [Compound 265, 3-Cyclohexyl-N-[2-(4-fluoro-phenylamino)-ethyl]-2-(S)-(2-tetrazol-1-yl-acetylamino)-propionamide], the inhibitory constant (Ki) at Cathepsin S was under 1000 nM. Further, the “Selectivity for Cat. S over Cat. K” value at Cathepsin K was “++ (++, >100)”.

Regarding `COc1ccc(NCCNC(=O)C(NC(=O)c2cccc(C)c2)C(C)c2ccc([N+](=O)[O-])cc2)cc1` (centres unmarked) [Compound 266, N-[1-[2-(4-Methoxy-phenylamino)-ethylcarbamoyl]-2-(4-nitro-phenyl)-propyl]-3-methyl-benzamide], the Ki on Cathepsin S was under 1000 nM. Besides, on Cathepsin K, the “Selectivity for Cat. S over Cat. K” value is “+ (+, >10)”.

As to `COc1ccc(NCCNC(=O)[C@H](Cc2ccc(Oc3cccc(C)c3)cc2)NC(=O)c2cccc(C)c2)cc1` [Compound 267, (S)-N-[1-[2-(4-Methoxy-phenylamino)-ethylcarbamoyl]-2-(4-m-tolyloxy-phenyl)-ethyl]-3-methyl-benzamide], the inhibitory constant (Ki) at Cathepsin S was under 100 nM. For the same molecule, the “Selectivity for Cat. S over Cat. K” value on Cathepsin K is recorded as “+++ (+++, >1000)”.

For `COc1ccc(NCCNC(=O)C(NC(=O)c2cccc(C)c2)C(C)c2ccccc2)cc1` (stereo not drawn) [Compound 268, threo-N-{1-[2-(4-Methoxy-phenylamino)-ethylcarbamoyl]-2-phenyl-propyl}-3-methyl-benzamide], the inhibition constant Ki on Cathepsin S was under 1000 nM. The “Selectivity for Cat. S over Cat. K” value at Cathepsin K was “++ (++, >100)”.

With `COc1ccc(NCCNC(=O)C(NC(=O)c2cccc(C)c2)C(C)c2ccccc2)cc1` (stereo not drawn) [Compound 269, erythro-N-{1-[2-(4-Methoxy-phenylamino)-ethylcarbamoyl]-2-phenyl-propyl}-3-methyl-benzamide], the Ki on Cathepsin S was under 10000 nM. Besides, the “Selectivity for Cat. S over Cat. K” value at Cathepsin K is “+ (+, >10)”.

`COc1ccc(NCCNC(=O)[C@H](Cc2ccc(-c3cccc([N+](=O)[O-])c3)cc2)NC(=O)c2cccc(C)c2)cc1` [Compound 271, (S)-N-[1-[2-(4-Methoxy-phenylamino)-ethylcarbamoyl]-2-(3′-nitro-biphenyl-4-yl)-ethyl]-3-methyl-benzamide]: the Ki on Cathepsin S was under 1000 nM. Also, at Cathepsin K, the “Selectivity for Cat. S over Cat. K” value was “++ (++, >100)”.

As to `O=C(N[C@@H](CC1CCCCC1)C(=O)NCCNc1ccc(F)cc1)c1ccoc1` [Compound 272, Furan-3-carboxylic acid (S)-{2-cyclohexyl-1-[2-(4-fluoro-phenylamino)-ethylcarbamoyl]-ethyl}-amide], at Cathepsin S, the inhibition constant Ki is under 100 nM. Besides, the “Selectivity for Cat. S over Cat. K” value at Cathepsin K was “++ (++, >100)”.

As for `COc1ccc(NCCNC(=O)[C@H](Cc2ccc(-c3ccccc3[N+](=O)[O-])cc2)NC(=O)c2cccc(C)c2)cc1` [Compound 273, (S)-N-[1-[2-(4-Methoxy-phenylamino)-ethylcarbamoyl]-2-(2′-nitro-biphenyl-4-yl)-ethyl]-3-methyl-benzamide], at Cathepsin S, the Ki was under 1000 nM. The “Selectivity for Cat. S over Cat. K” value on Cathepsin K is reported as “++ (++, >100)”.

On to `COc1ccc(NCCNC(=O)[C@H](Cc2ccc(-c3cccnc3)cc2)NC(=O)c2cccc(C)c2)cc1` [Compound 274, (S)-N-[1-[2-(4-Methoxy-phenylamino)-ethylcarbamoyl]-2-(4-pyridin-3-yl-phenyl)-ethyl]-3-methyl-benzamide], for which the Ki at Cathepsin S is under 100 nM. Further, at Cathepsin K, the “Selectivity for Cat. S over Cat. K” value was “+++ (+++, >1000)”.

Consider `COc1ccc(NCCNC(=O)[C@H](Cc2ccc(-c3ccsc3)cc2)NC(=O)c2cccc(C)c2)cc1` [Compound 275, (S)-N-[1-[2-(4-Methoxy-phenylamino)-ethylcarbamoyl]-2-(4-thiophen-3-yl-phenyl)-ethyl]-3-methyl-benzamide], for which the Ki on Cathepsin S was under 100 nM. For the same molecule, the “Selectivity for Cat. S over Cat. K” value on Cathepsin K was “+++ (+++, >1000)”.

With `COc1ccc(NCCNC(=O)[C@H](Cc2ccc(-c3ccc(C#N)cc3)cc2)NC(=O)c2cccc(C)c2)cc1` [Compound 276, (S)-N-{2-(4′-Cyano-biphenyl-4-yl)-1-[2-(4-methoxy-phenylamino)-ethylcarbamoyl]-ethyl}-3-methyl-benzamide], the inhibitory constant (Ki) on Cathepsin S is under 100 nM. Besides, the “Selectivity for Cat. S over Cat. K” value at Cathepsin K is recorded as “+++ (+++, >1000)”.

The record behind these values is patent US7109243B2 (IRM LLC, priority 2003, dated 2006).
